Data set [1] has as its system mammals. The settings on record: cited from earlier work.
Data set [2] has as its system tobacco hornworm (Manduca sexta) larvae. The data set can be described thus: Tobacco hornworm growth and developmental responses to feeding on diets containing the compounds. It is filed as in vivo. On the procedure:
The compounds produced and described in Example 1 were then tested for pesticidal activity against the tobacco hornworm (Manduca sexta). The screening procedure for these tests began with the larval stage and continued through the pupal and adult stages and finally evaluated egg production. The studies thus permitted the evaluation of the effects of the compounds over several subsequent developmental stages in the total life cycle of the insect, giving estimates of acute toxicity (insecticidalor larvicidal activity) as well as prolonged or delayed effects on development (growth regulation) and reproduction (chemosterilization). The latter are of special importance in conjunction with the integrated pest management approach to insect control.
The test compounds were incorporated into the artificial diet of tobacco hornworm larvae and their subsequent growth and developmental responses were monitored using the following parameters: larval mortality including determination of LD50 values, rate of larval development and weight gain, percent pupation, pupal weight and degree of deformities, percent adult emergence and measures of reproductive capacity such as the number of developed ooctyes, fecundity and fertility. The protocol for the screening tests has been developed over a number of years by Dahlman et al., Comp. Biochem. Physiol. 51A, 33, (1975); Comp. Biochem. Physiol., 52A, 105 (1975); Ent. Exp. et Appl., 22, 123 (1977); Palumbo and D. L. Dahlman, J. Econ. Entomol. 71, 674 (1978); D. L. Dahlman, Ent. Exp. et Appl., 24, 327 (1978).
Each treatment used 15 newly ecdysed fifth-instar larvae. Death of larvae within a few hours to several days of initial exposure was considered to be acute toxicity. However, the compounds may reduce the maximum size attained by larvae and/or may retard growth so that larvae require additional time to attain their maximum size. Developmental parameters subsequent to the feeding stage also may be affected. […] Mortality may occur in the pupal stage or emerging adults may have wrinkled wings or other deformities. The number of eggs produced by treated females may be reduced and/or unfertile. Although acute toxicity is desirable in the control of any insect, the delayed effects which result in poor survival and reduced reproductive capacity are significant factors in the long-range program of pest management systems.
Continuous cultures of M. sexta are maintained according to the procedures of Yamamoto, J. Econ. Entomol., 62, p. 1427 (1969). Ingredients of the diet formulation include sugar, casein, wheat germ oil, cholesterol, salt mixture, yeast, vitamins, antioxidants and fungal inhibitors, such as ascorbic acid, sorbic acid, formaldehyde and methyl-p-benzoate. All are incorporated into a liquid agar base which, when poured into holding pans, solidifies to form an adequate substrate upon which the insect larvae feed. Nearly any test material can be uniformly incorporated into such a diet. Thus, exposure to experimental compounds can be evaluated during all or any part of the larval stage. In addition, chronic or long-term effects in subsequent life stages can also be monitored.
The results from these studies, in which the 1,2-diphenylaziridines of Example 1 were incorporated singly into the diet of M. sexta at a concentration of 5 mM are presented in the following Table I.

Data set [3] concerns tobacco hornworm larvae (newly ecdysed fifth-instar). The data set can be described thus: Topical application to tobacco hornworm larvae. It is filed as in vivo, Manduca sexta. On the procedure: The test compounds were dissolved either in acetone or hexane and applied to the integument of the test insect with a micro applicator. Newly ecdysed fifth-instar tobacco hornworm larvae weighing between 1-1.5 g were used and toxicity data were obtained in the same way as previously described.

Data set [4] concerns H. virescens larvae. In words: Topical application to H. virescens larvae. The class given is in vivo, Heliothis virescens. The note with it: within 48 hr.
The subject of data set [5] is H. virescens. In words: Incorporation into H. virescens diet. The class given is in vivo, Heliothis virescens. The settings on record: as much as 20 mM in diet. The method, then: Compounds 1, 10, 11, 13 and 14 were incorporated into H. virescens diet in the same manner as M. Sexta. Diets containing as much as 20 mM of each compound had little effect on larval development time, pupal weight or time to adult emergence.

For data set [6], the system named is Salmonella typhimurium strains TA 98, TA 100, TA 1535, TA 1537, TA 1538, TA 1978. The data set can be described thus: Ames assay (spot test), revertant colonies. It is filed as cell-based. On the procedure:
This means that aziridine compounds, 1, 10, or 11, will not cause mutations in DNA arising from potential changes in frame shift and/or base pairing. Compounds 1, 10 and 11 were tested for mutagenic properties using the following experimental procedure.
Potential mutagenic and carcinogenic properties of the compounds were evaluated with standard Ames assay procedures (Ames et al, "Mutation Res.", 31, p. 347, 1975). This assay used strains of Salmonella typhimurium selected for sensitivity and specificity in being reverted from a histidine requirement back to prototrophy by a wide variety of mutagens. Potential changes in frameshift were evaluated using strains TA 98, TA 1537 and TA 1538, while changes in base pairing were detected using strains TA 100 and TA 1535. In addition, strain TA 1978 was used, in combination with TA 1538, to evaluate whether the agent killed bacteria by damage to DNA that could be repaired by this strain. Initially, the compounds were screened using the spot test, in which 1000 μgm of material dissolved in 10 μl of DNSO was applied to the middle of the plate.
Dose-response tests were not performed because the results were negative. All the tests were carried out in the presence and absence of an S9 rat liver preparation and contained a positive control (2-acetylaminofluorene,AAF) and a negative control (DMSO).
On the technique in general: The Ames test detects mutagens through reverse mutation in bacteria.

Some results are limits rather than exact numbers.

With `O=P(N1CC1)(N1CC1)N1CC1` [tepa, tris(1-aziridinyl)-phosphine oxide], the “toxicity reported in the literature” value in data set [1] is “carcinogenic and mutagenic properties”.

As a reminder, the mortality is the percentage killed. For `Fc1ccc(N2CC2c2ccccc2F)cc1` (stereo not shown) [Compound 15], in data set [2] (5 mM in diet), the “% Adult Emergence” value is reported as 60%, the “% Malformed Adults” value is given as 0%, the “% Pupation” value is given as 67% and the “Days to Max Wt” value is 6.7 ± .4 days. Further, in data set [2] (5 mM in diet), the “Max Larval Wt” value is 8.04 ± .41 g, the “Mean No. of Eggs” value was 67 ± 42 and the “No. of female Adults” value is recorded as 3. Moreover, in data set [2] (5 mM in diet, all tests began with 15 larvae), the “Total No. of Adults” value was 9. Also, the “size of surviving larvae” value in data set [3] (125 μg/larvae) is recorded as “smaller than controls”. Further, the mortality at 125 µg/larva in data set [3] (Manduca sexta, topical, 125 μg/larvae, during the entire 5th instar) came out at 20%. The mortality at 250 µg/larva in data set [3] (Manduca sexta, topical, 250 μg/larva, within 24 hr) was 100%. For the same compound, in data set [4] (62.5 μg/larva or 625 ppm topical, 100 mg larvae), the larvae killed was 60%. The compound further showed a larvae killed in data set [4] (312 ppm topical) of 40%.

As for `CC1CN1P(=O)(N1CC1C)N1CC1C` (stereo not shown) [metepa, tris(2-methyl-1-aziridinyl)phosphine oxide], the “toxicity reported in the literature” value in data set [1] was “carcinogenic and mutagenic properties”.

Consider `Clc1ccccc1C1CN1c1ccc(Br)cc1` (stereo not shown) [Compound 1], for which, in data set [2] (1 mM in diet), the “% Adult Emergence” value came out at 100%, the “% Adults” value is reported as 100%, the “% Malformed Adults” value turned out to be 0% and the “% Pupation” value turned out to be 100%. Also, in data set [2] (1 mM in diet), the “Days to Max Wt” value is 5.8 ± .2 days, the “Max Larval Wt” value was 7.94 g, the “Mean No. of Eggs” value worked out at 32 ± 9 and the “No. of female Adults” value is reported as 10. In data set [2] (1 mM in diet), the “Total No. of Adults” value was 15 and the “larval weight” value is on record as “a slight reduction in larval weight”. Besides, the “mean number of eggs” value in data set [2] (1 mM in diet, relative to controls) is given as “only half that of the controls”. Further, in data set [2] (2.5 mM in diet), the “% Adult Emergence” value is listed as 100%, the “% Adults” value is listed as 27%, the “% Malformed Adults” value was found to be 50% and the “% Pupation” value was determined as 27%. Moreover, in data set [2] (2.5 mM in diet), the “Days to Max Wt” value is 6.2 ± 0.7 days, the “Max Larval Wt” value was determined as 4.99 g, the “Mean No. of Eggs” value came out at 8 ± 9 and the “No. of female Adults” value was determined as 2. For the same compound, in data set [2] (2.5 mM in diet), the “Total No. of Adults” value is recorded as 4; the “malformed adults” value is recorded as “a large percentage”; the “maximum larval weight and mean number of eggs” value was “reduced maximum larval weight and the mean number of eggs”; the “percent pupation” value is “lowered the percent pupation”. Also, in data set [2] (5 mM in diet), the “larval death (words in table)” value is reported as “ALL DEAD BY SECOND DAY OF FEEDING”; the “larval mortality” value is reported as “all or nearly all larvae died”; the symptoms of larvae result was “extreme agitation of larvae, oral and anal expulsion of fluids and ultimately, death”; the “time until all larvae dead” value was not below 48 h. Further, the “oral activity” value in data set [2] (diet, Example 2) is listed as “good oral activity”. Further, in data set [2] (in 24-72 hours, summary of Tables I and II), the “larval mortality (acute toxicity)” value amounted to 100%. The “time to 100% larval mortality” value in data set [2] (summary of Tables I and II) was 24 to 72 h. Moreover, the larvae killed in data set [3] (1000 μg/larva (800 ppm), within 48 hr) amounted to 70%. Besides, in data set [3] (400 ppm topical), the “developmental effects” value is “delayed larval development, reduced maximum size and the number of resulting eggs”. For the same compound, in data set [5], the “effect on larval development time, pupal weight or time to adult emergence” value is given as “little effect”. Further, the “Mean number of revertant colonies per plate, TA 98 +S9” value in data set [6] (strain TA 98, +S9) is given as 44.0 colonies per plate. Besides, the “Mean number of revertant colonies per plate, TA 98 -S9” value in data set [6] (strain TA 98, -S9) was 32.7 colonies per plate. Besides, the “Mean number of revertant colonies per plate, TA 100 +S9” value in data set [6] (strain TA 100, +S9) was found to be 61.7 colonies per plate. In addition, the “Mean number of revertant colonies per plate, TA 100 -S9” value in data set [6] (strain TA 100, -S9) was found to be 25.3 colonies per plate. For the same compound, the “Mean number of revertant colonies per plate, TA 1535 +S9” value in data set [6] (strain TA 1535, +S9) was found to be 15.0 colonies per plate. Further, in data set [6] (strain TA 1535, -S9), the “Mean number of revertant colonies per plate, TA 1535 -S9” value came out at 17.3 colonies per plate. The “Mean number of revertant colonies per plate, TA 1537 +S9” value in data set [6] (strain TA 1537, +S9) came out at 13.3 colonies per plate. The “Mean number of revertant colonies per plate, TA 1537 -S9” value in data set [6] (strain TA 1537, -S9) was 7.5 colonies per plate. Further, in data set [6] (strain TA 1538, +S9), the “Mean number of revertant colonies per plate, TA 1538 +S9” value was determined as 26.7 colonies per plate. For the same compound, the “Mean number of revertant colonies per plate, TA 1538 -S9” value in data set [6] (strain TA 1538, -S9) is given as 12.0 colonies per plate. In addition, the “Mean number of revertant colonies per plate, TA 1978 +S9” value in data set [6] (strain TA 1978, +S9) is listed as 189.0 colonies per plate. Moreover, in data set [6] (strain TA 1978, -S9), the “Mean number of revertant colonies per plate, TA 1978 -S9” value came out at 207.3 colonies per plate. In data set [6] (with and without S9 / mammalian liver enzymes), the “mutagenicity” value is “not mutagenic”.
